From article PMC4805609, “Estrogenic Effects of Several BPA Analogs in the Developing Zebrafish Brain” (Frontiers in Neuroscience, 2016)
Where two headings read alike, the source gives them in different places.

What was measured:
cyp19a1b gene = test: RT-qPCR of cyp19a1b transcripts in wild type 7-dpf larva brains
Procedure: (§1) For subsequent RT-qPCR and in situ hybridization analysis with wild type zebrafish, groups of 80 embryos (for each condition) were placed after 1 day post-fertilization (1-dpf) in a large glass flask containing 100 ml of embryonic medium (Mouriec et al., [2009b]). […] The embryos were held in the exposure flasks until 7-dpf larva stage. […] Embryos were maintained in the exposure dishes until 4-dpf larva stage. During the treatment period, 100% of the exposure medium was renewed every 24 h (for both wild type and transgenic zebrafish).
Tissue was sonicated (10 s, 3 times) in 250 μL Trizol Reagent (Invitrogen) and RNA extractions were carried out according to the manufacturer's protocol. Reverse transcription was carried out by incubating 2μg total RNA with 1μg of random primer oligonucleotides, 2.5ṁM dNTPs, and 50 U MMLV-RT (Promega) in the appropriate buffer for 10 min at 65°C and 60 min at 37°C. Quantitative Polymerase chain reaction (qPCR) experiments were performed in an iCycler thermocycler coupled to the MyiQ detector (Bio-Rad. Hercules, CA, USA) using iQ SYBR-Green Supermix (Bio-Rad) according to the manufacturer's protocol. The following primers were used: ef1 (fw) 5′-[…]-3′; ef1 (rev) 5′-[…]-3′; cyp19a1b (AroB; fw) 5′-[…] For each condition, the RT-PCR experiment was run in triplicates. Expression levels of ef1 mRNA were used to normalize cyp19a1b expression levels. Melting curve and PCR efficiency analyses were performed to confirm correct amplification. For quantification of PCR results, the threshold cycle (Ct) was determined for each reaction. Ct values for each gene of interest were normalized with the housekeeping gene ef1, using the ΔΔCt method. Normalized values were used to calculate the degree of induction or inhibition expressed as a “fold difference” compared to normalized control values.

cyp19a1b promoter = test: EASZY assay: GFP fluorescence in brain of live cyp19a1b-GFP transgenic 4-dpf larvae; assay type: in vivo, zebrafish; conditions: 4-dpf cyp19a1b-GFP larvae, exposure 2 hpf to 4 dpf
Procedure: Quantification of fluorescence in transgenic cyp19a1b-GFP zebrafish larva brain was performed according to Brion et al. ([2012]). In this assay, estrogenic activity is detected in living 4 days-old larvae (treated or not with an estrogen mimic compound) from the observation of the reporter gene fluorescence in the radial glial cells. […] All photographs were taken using the same parameters: only the head was photographed under a X10 objective, with a 134 ms exposure time and maximal intensity. Photographs were analyzed using the Axiovision Imaging software and fluorescence quantification was performed using the ImageJ software (http://rsbweb.nih.gov/ij/). For each picture, the integrated density was measured, i.e., the sum of the gray-values of all the pixels within the region of interest. A gray-value of 290 was defined as background value. For each micrograph the fluorescence fold induction of fluorescence was calculated comparing the integrated pixel density with the average fluorescence induction obtained in the control group.

cyp19a1b transcripts = test: cyp19a1b in situ hybridization on 7-dpf brain sections; assay type: in vivo, zebrafish; conditions: 7-dpf larvae; for distribution of cyp19a1b transcripts in the whole brain: transverse sections
Procedure: as §1
Larvae used for in situ hybridization experiments originated from the same exposition groups than RT-qPCR experiments. After exposure to the different conditions, 10 wild type 7-dpf larvae (for each treatment) were fixed overnight at 4°C in 4% paraformaldehyde, before embedding in parrafin. Serial thin transverse sections ([…]) were placed on cryofrost slides and subjected to in situ hybridization experiments. Sense and antisense digoxigenin-labeled riboprobes for the cyp19a1b gene were transcribed using the Digoxigenin RNA labeling kit in accordance with the manufacturer's instructions (Roche, Mannheim, Germany) and as previously described (Menuet et al., [2005]). The brain sections were processed for in situ hybridization using stringent conditions as previously published (D'Amico et al., [2011], [2013]). After NBT/BCIP revelation, sections were counterstained with DAPI, and mounted in a drop of vectashield (Vector Laboratories). All sections were photographed with an Olympus PROVIS AX70 microscope with a digital camera (Olympus SP71), or a Nikon multizoom AZ100 macroscope with a DS-Ri1 color camera.

zebrafish embryos/larvae = test: Mortality, toxicity, teratogenicity and motility of exposed embryos/larvae; assay type: in vivo; conditions: EE2 1 nM, BPA 0.1, 1, 10 μM; until 7-days larval stage; data not shown
zfERα [1] = target: T1, zfERα (Danio rerio, UniProt P57717); test: competitive binding assay vs [3H]-E2 on in vitro translated zfERα; design: containing the coding regions of each zebrafish estrogen receptor cDNA; species or system zebrafish; conditions: for receptor-binding activity: competition with [3H]-E2, ERα, Figure 8A; for IC50: displacement of 10^−9 M [3H]-E2, ERα
T1 sequence (P57717 1-569): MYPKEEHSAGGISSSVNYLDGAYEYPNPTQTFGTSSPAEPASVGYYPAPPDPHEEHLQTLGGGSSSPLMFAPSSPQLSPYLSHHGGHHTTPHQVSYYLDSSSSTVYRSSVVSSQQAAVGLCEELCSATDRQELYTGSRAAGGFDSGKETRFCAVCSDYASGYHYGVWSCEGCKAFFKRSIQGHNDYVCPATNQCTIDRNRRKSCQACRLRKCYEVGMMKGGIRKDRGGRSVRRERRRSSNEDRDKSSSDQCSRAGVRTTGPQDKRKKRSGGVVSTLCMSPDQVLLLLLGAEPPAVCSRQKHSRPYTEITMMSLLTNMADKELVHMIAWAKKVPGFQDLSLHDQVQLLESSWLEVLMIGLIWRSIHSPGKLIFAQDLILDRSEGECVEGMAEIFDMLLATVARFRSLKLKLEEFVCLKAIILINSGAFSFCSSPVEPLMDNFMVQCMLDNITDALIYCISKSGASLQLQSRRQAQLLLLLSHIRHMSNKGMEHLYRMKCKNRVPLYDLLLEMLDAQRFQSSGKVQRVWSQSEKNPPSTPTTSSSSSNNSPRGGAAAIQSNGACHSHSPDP
Procedure: We also performed a competitive binding assay to test the binding properties of our compounds of interest with the three zfERs (Blair et al., [2000]). The three zebrafish estrogen receptor proteins were synthesized using the Topo-pcDNA3 expression vector containing the coding region of zfERα, zfERβ1, and zfERβ2 (Menuet et al., [2002]). The TNT Quick Coupled Transcription/Translation Systems kit (Promega, Madison, WI, USA) was used for synthesis of zfER proteins by adding 1 μg of each ER expression vector and according to the manufacturer's protocol. […] IC50 were calculated using GraphPad Prism, version 6.07.

zfERα [2] = target: T1, zfERα; test: cyp19a1b-luciferase reporter gene assay in U251-MG glial cells transfected with zfERα; assay type: cell-based, zebrafish; design: containing the coding regions of each zebrafish estrogen receptor cDNA; expressed in transfected cells; host or cells: human U251-MG glial cells (ER-negative); conditions: for cyp19a1b-luciferase reporter gene induction: 10–6 M, 24 h, U251-MG cells with ERα, vs DMSO
Procedure: (§2) The medium was also supplemented with 20 U/mL penicillin, 20 μg/mL streptomycin, and 50 ng/mL amphotericin B (Gibco). For transfections, cells were plated in 24-well plates at a density of 25,000 cells/ml in the same medium, except the fetal calf serum was charcoal-treated and used at a concentration of 2.5%. Cells were transfected with 25 ng/well either the vector expression containing or not the zfERα, zfERβ1, zfERβ2 coding region and cytomegalovirus [CMV]−β-Galactosidase, and 150 ng/well of the cyp19a1b-Luciferase reporter plasmid, using JetPEI as a transfection reagent (Polyplus Transfection, Illkirch, France). […] Luciferase activity was measured 24 h later (Luciferase assay system, Promega, Madison, WI, USA). β-Galactosidase activity was used to normalize transfection efficiency. Chemicals were tested in at least 3 independent experiments and each experiment was performed in triplicate.

zfERβ1 = target: T2, zfERβ1 (Danio rerio, UniProt Q5PR29); test: cyp19a1b-luciferase reporter gene assay in U251-MG glial cells transfected with zfERβ1; assay type: cell-based, zebrafish; conditions: 10–9 M, 24 h, U251-MG cells with ERβ1, vs DMSO
T2 sequence (Q5PR29 1-592): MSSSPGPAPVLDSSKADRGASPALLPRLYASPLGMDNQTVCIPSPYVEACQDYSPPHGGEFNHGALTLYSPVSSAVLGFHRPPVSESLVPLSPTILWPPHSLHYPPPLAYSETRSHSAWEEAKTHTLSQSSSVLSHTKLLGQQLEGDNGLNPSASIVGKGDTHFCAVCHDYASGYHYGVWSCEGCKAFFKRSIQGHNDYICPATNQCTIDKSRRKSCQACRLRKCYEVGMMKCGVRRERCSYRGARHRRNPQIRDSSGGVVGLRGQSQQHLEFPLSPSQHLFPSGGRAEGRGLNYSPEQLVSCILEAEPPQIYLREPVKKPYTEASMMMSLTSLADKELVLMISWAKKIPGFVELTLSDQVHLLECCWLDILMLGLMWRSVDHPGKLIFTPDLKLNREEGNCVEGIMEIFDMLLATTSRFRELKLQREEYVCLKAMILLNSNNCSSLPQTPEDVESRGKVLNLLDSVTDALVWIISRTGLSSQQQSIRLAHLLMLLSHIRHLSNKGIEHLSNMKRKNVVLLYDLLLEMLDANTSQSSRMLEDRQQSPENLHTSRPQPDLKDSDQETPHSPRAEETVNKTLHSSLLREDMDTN
From the text: The zfER-α, zfER-β1, and zfER-β2 expression vectors correspond to Topo-pcDNA3 expression vector (Invitrogen, San Diego, CA, USA), containing the coding regions of each zebrafish estrogen receptor cDNA as previously described (Menuet et al., [2002]). The cyp19a1b-Luciferase plasmid consists of 500 bp of the proximal promoter region of zebrafish cyp19a1b gene, containing an ERE, coupled to the luciferase reporter gene (Menuet et al., [2002]).
as §2, with “Human U251-MG glial cells were maintained in phenol red-free Dulbecco's Modified Eagle's Medium (DMEM; Life Technologies, Saint Aubin, France) supplemented with 10% fetal calf serum (Biowest, Nuaillé, France), 4 mM L-Glutamine (Gibco, Carlsbad, CA, USA) and 1 mM Na-Pyruvate (Life Technologies, Saint Aubin, France) and kept at 37°C and 5% CO2 atmosphere (Le Page et al., [2006]). The” for “The”

zfERβ2 = zfERβ2 (Danio rerio, UniProt Q7ZU32); test: cyp19a1b-luciferase reporter gene assay in U251-MG glial cells transfected with zfERβ2; assay type: cell-based, zebrafish; conditions: 10–9 M, 24 h, U251-MG cells with ERβ2, vs DMSO
Procedure: as §2

Chain of zfERβ2 (Q7ZU32 1-553): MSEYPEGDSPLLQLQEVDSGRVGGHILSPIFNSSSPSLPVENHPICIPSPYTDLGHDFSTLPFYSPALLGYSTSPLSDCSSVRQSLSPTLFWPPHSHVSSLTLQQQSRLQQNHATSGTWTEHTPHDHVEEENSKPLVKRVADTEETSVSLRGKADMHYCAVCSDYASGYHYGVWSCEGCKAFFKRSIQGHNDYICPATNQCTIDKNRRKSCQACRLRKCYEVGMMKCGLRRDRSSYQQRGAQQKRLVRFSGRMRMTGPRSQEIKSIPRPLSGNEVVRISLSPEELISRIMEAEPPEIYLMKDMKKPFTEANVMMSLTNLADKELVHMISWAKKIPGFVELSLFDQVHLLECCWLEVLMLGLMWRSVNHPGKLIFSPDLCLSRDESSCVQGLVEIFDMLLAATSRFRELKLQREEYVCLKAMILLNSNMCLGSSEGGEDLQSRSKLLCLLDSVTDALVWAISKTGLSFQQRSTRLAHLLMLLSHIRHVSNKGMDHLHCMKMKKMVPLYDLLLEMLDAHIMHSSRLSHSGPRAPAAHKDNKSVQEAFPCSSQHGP

Compound CC(C)(c1ccc(O)cc1)c1ccc(O)cc1 [BPA, 2,2-bis(4-hydroxyphenyl)propane, reference compound] has a fold induction at 0.1 µM (cyp19a1b gene; Danio rerio, read-out: cyp19a1b gene expression, fold induction relative to DMSO, 0.1 μM, 7-dpf larvae brains, Figure 1A) of 9, a fold induction at 1 µM (cyp19a1b gene; Danio rerio, read-out: cyp19a1b gene expression, fold induction relative to DMSO, 1 μM, 7-dpf larvae brains, Figure 1A) of roughly 20 and a fold induction at 1 µM (cyp19a1b gene; Danio rerio, read-out: cyp19a1b gene expression, fold induction relative to DMSO, 1 μM, 7-dpf larvae brains, six independent exposures, Figure 1B) of roughly 36. For the same compound, the fold induction at 10 µM (cyp19a1b gene; Danio rerio, read-out: cyp19a1b gene expression, fold induction relative to DMSO, 10 μM, 7-dpf larvae brains, Figure 1A) was 12, the fold induction at 1 µM (cyp19a1b promoter; Danio rerio, read-out: GFP fluorescence, fold induction above DMSO control) was 16 and the “cyp19a1b transcripts in the nucleus recessus posterioris (nrp), caudal hypothalamus” value (cyp19a1b transcripts; 1 μM) was “strong levels of cyp19a1b transcripts”. For the same compound, the “distribution of cyp19a1b transcripts in the whole brain” value (from here on “distribution of cyp19a1b transcripts”) (cyp19a1b transcripts; 1 μM) was “strong presence of cyp19a1b transcripts in virtually identical regions than EE2-treated larvae”, the “toxic or teratogenic effect” value (zebrafish embryos/larvae) was “did not caused notable toxicological effects” and the receptor-binding activity (zfERα [1]) was “bind in vitro to ERα receptor”. The IC50 (zfERα [1]) was 2.8 µM and the “cyp19a1b-luciferase reporter gene induction” value (zfERα [2]) was “significant stimulation”.
In the case of C#C[C@]1(O)CC[C@H]2[C@@H]3CCc4cc(O)ccc4[C@H]3CC[C@@]21C [EE2, 17α-ethinylestradiol, reference compound], the “distribution of cyp19a1b transcripts” value (cyp19a1b transcripts; EE2 1 nM) is reported as “massive over-expression of the cyp19a1b transcripts”, the “cyp19a1b-luciferase reporter gene induction” value (zfERβ1) is reported as “strong induction” and the “cyp19a1b-luciferase reporter gene induction” value (zfERβ2) is reported as “strong induction”.
With C[C@]12CC[C@@H]3c4ccc(O)cc4C[C@@H](CCCCCCCCC[S+]([O-])CCCC(F)(F)C(F)(F)F)[C@H]3[C@@H]1CC[C@@H]2O (stereo partly drawn) [ICI, reference compound] the “effect on BPA, BPF and BPAF stimulations of cyp19a1b-luciferase” value (zfERα [2]; simultaneous treatment, ERα-expressing U251-MG cells, Figure 7B) was “completely abolished”.
In the case of Oc1ccc(Cc2ccc(O)cc2)cc1 [BPF, 4,4′-dihydroxydiphenyl methane], the “cyp19a1b gene expression, fold induction relative to DMSO” value (cyp19a1b gene; 1 μM, 7-dpf larvae brains, six independent exposures, Figure 1B) is reported as 20 fold, the “GFP fluorescence, fold induction above DMSO control” value (cyp19a1b promoter; 1 μM) is reported as 13 fold and the “distribution of cyp19a1b transcripts” value (cyp19a1b transcripts; 1 μM) is reported as “identical to EE2- and BPA-treated animals”. The receptor-binding activity (zfERα [1]) was “bind in vitro to ERα receptor”, the IC50 (zfERα [1]) was 10.6 µM and the “cyp19a1b-luciferase reporter gene induction” value (zfERα [2]) was “increased luciferase activity in ERα cells, but the stimulation did not reach statistical significance”.
